The values that follow come from patent US20140081025A1, “HETEROAROMATIC RING DERIVATIVE” (TAISHO PHARMACEUTICAL CO., LTD., priority 2011, published 2014).

In assay [1] the target is T1, human orexin 1 receptor (hOX1R) (Homo sapiens, UniProt O43613).
T1 construct: expressed in transfected cells; host or cells: Chinese hamster ovary (CHO) cells
T1 sequence (O43613 1-425): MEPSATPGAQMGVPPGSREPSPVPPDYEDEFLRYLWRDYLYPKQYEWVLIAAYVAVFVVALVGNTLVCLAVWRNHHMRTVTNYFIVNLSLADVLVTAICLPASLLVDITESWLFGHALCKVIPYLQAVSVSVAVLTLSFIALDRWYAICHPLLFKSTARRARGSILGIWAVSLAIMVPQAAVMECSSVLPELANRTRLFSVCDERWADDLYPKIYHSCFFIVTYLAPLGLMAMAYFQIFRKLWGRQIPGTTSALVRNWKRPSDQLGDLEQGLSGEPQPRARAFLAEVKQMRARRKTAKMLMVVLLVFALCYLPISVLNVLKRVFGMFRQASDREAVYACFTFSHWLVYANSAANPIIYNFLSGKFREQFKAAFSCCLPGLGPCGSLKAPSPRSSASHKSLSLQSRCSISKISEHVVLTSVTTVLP
In words: Measurement of orexin antagonist activity (intracellular Ca2+ fluorescence, FDSS) in CHO cells expressing hOX1R. Particulars: CHO cells forcibly expressing hOX1R; ligand (two-amino-acid-substituted human orexin-A) 300 pM; Fluo 4-AM; read-out: IC50 value OX1. The format is cell-based. As to the method:
(§1) The antagonist activity of a test compound against the human orexin 1 receptor (hOX1R) or orexin 2 receptor (hOX2R) was measured by the method described in the document (Toshikatsu Okumura et al., Biochemical and Biophysical Research Communications, 280, 976-981, 2001) with appropriate modification. Chinese hamster ovary (CHO) cells forcibly expressing hOX1R or hOX2R were seeded into each well of a 96-well Black clear bottom plate (Nunc A/S) in the amount of 20000 cells per well and were cultured in a Ham's F-12 medium (Invitrogen, Inc.) containing 0.1 mM MEM non-essential amino acids (Invitrogen, Inc.), 0.5 mg/mL G418 (Invitrogen, Inc.), and 10% fetal calf serum (Invitrogen, Inc.) at 37° C. in 5% CO2 for 16 hours. The medium was removed, and then added to each well was 100 μL of an assay buffer (pH 7.4) containing 0.5 μM Fluo 4-AM ester (Dojindo Laboratories), wherein the buffer was composed of 25 mM HEPES (Dojindo Laboratories), a Hanks' balanced salt solution (Invitrogen, Inc.), 0.1% bovine serum albumin (Sigma-Aldrich Co., LLC.), 2.5 mM probenecid (Sigma-Aldrich Co., LLC.), and 200 μg/mL Amaranth (Sigma-Aldrich Co., LLC.), followed by incubation at 37° C. in 5% CO2 for 60 min. The assay buffer containing Fluo 4-AM ester was removed, and then 150 μL of an assay buffer solution containing 10 mM of the test compound dissolved in dimethyl sulfoxide was added to each well, followed by incubation for 30 min.
(§2) A peptide (Pyr-[…]NH2: Peptide Institute, Inc.), which is a ligand having substitution of two amino acids in human orexin-A, was diluted with an assay buffer to a final concentration of 300 pM for hOX1R and to a final concentration of 3 nM for hOX2R. The reaction was started by adding 50 μL of this ligand solution to each well. The reaction was monitored by measuring the fluorescence of each well at each 1 second for 3 min with a Functional Drug Screening System (FDSS manufactured by Hamamatsu Photonics K.K.), and the antagonist activity was determined based on the maximum fluorescence value as an index of the intracellular Ca^2+ concentration. The antagonist activity of a test compound was calculated by assuming that the fluorescence value of the well containing only a dilution buffer was 100% and that the fluorescence value of the well containing a buffer not containing the ligand or any test compound was 0%. The 50% inhibitory concentration (IC50 value) of a test compound was determined from fluorescence values at various concentrations of the test compound.

The target in assay [2] is T2, human orexin 2 receptor (hOX2R) (Homo sapiens, UniProt O43614).
T2 construct: expressed in transfected cells; host or cells: Chinese hamster ovary (CHO) cells
T2 sequence (O43614 1-444): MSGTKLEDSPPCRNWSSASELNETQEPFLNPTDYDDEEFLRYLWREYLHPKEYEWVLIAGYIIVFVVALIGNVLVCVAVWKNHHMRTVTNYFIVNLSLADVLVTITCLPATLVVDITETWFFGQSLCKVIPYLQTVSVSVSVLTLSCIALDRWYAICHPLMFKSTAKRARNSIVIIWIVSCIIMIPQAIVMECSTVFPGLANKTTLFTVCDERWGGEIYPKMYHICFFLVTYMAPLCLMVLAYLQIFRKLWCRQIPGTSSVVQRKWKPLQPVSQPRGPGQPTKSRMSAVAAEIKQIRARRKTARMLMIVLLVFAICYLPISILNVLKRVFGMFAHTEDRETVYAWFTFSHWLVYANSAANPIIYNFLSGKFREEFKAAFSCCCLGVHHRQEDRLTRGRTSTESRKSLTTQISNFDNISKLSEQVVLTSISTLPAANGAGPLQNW
As to the kind of experiment: Measurement of orexin antagonist activity (intracellular Ca2+ fluorescence, FDSS) in CHO cells expressing hOX2R. The class given is cell-based. Particulars: CHO cells forcibly expressing hOX2R; ligand (two-amino-acid-substituted human orexin-A) 3 nM; Fluo 4-AM; read-out: IC50 value OX2. As to the method: as §1, §2

As for `CCN(CCc1ccn(-c2ccc(F)cc2)n1)C(=O)c1ccccc1-n1nccn1` [Example 22, N-Ethyl-N-{2-[1-(4-fluorophenyl)-1H-pyrazol-3-yl]ethyl}-2-(2H-1,2,3-triazol-2-yl)benzamide], the IC50 in assay [1] was found to be 2.2 nM; in assay [2] it was 10.6 nM.
Taken in the same sequence, the figures for `CCN(CCc1ccn(-c2ccc(F)c(F)c2)n1)C(=O)c1ccccc1-n1nccn1` [Example 25, N-{2-[1-(3,4-difluorophenyl)-1H-pyrazol-3-yl]ethyl}-N-ethyl-2-(2H-1,2,3-triazol-2-yl) benzamide] were 1.6 nM and 3.3 nM.
For the compound `Cc1ccc(-n2nccn2)c(C(=O)N(C)CCc2noc(-c3ccc(F)c(F)c3)n2)c1` [Example 36], the IC50 in assay [1] was determined as 1.9 nM; in assay [2], 5.9 nM.
Consider `CN(CCc1ccn(-c2ccc(F)cn2)n1)C(=O)c1cc(F)ccc1-n1nccn1` [Example 15, 5-Fluoro-N-{2-[1-(5-fluoropyridin-2-yl)-1H-pyrazol-3-yl]ethyl}-N-methyl-2-(2H-1,2,3-triazol-2-yl)benzamide], for which the IC50 in assay [1] came out at 14.6 nM; in assay [2], 191 nM.
In the same order, the values of `CCN(CCc1cnn(-c2ccc(F)cn2)c1)C(=O)c1cc(C)ccc1-n1nccn1` [Example 1, N-Ethyl-N-{2-[1-(5-fluoropyridin-2-yl)-1H-pyrazol-4-yl]ethyl}-5-methyl-2-(2H-1,2,3-triazol-2-yl)benzamide] are 1.8 nM and 5.2 nM.
Taken in the same sequence, the figures for `CCN(CCc1noc(-c2ccc(F)cc2)n1)C(=O)c1cc(C)ccc1-c1ncccn1` [Example 39, N-ethyl-N-{2-[5-(4-fluorophenyl)-1,2,4-oxadiazol-3-yl]ethyl}-5-methyl-2-(pyrimidin-2-yl)benzamide] were 0.7 nM and 17.3 nM.
For the compound `CCN(CCc1noc(-c2ccc(F)cc2)n1)C(=O)c1ccccc1-n1nccn1` [Example 41, N-ethyl-N-{2-[5-(4-fluorophenyl)-1,2,4-oxadiazol-3-yl]ethyl}-2-(2H-1,2,3-triazol-2-yl) benzamide], the IC50 in assay [1] worked out at 1.6 nM; in assay [2], 31.6 nM.
Turning to `CCN(CCc1ccn(-c2ccc(F)cn2)n1)C(=O)c1ccccc1-n1nccn1` [Example 4, N-Ethyl-N-{2-[1-(5-fluoropyridin-2-yl)-1H-pyrazol-3-yl]ethyl}-2-(2H-1,2,3-triazol-2-yl)benzamide], the IC50 in assay [1] was determined as 0.5 nM; in assay [2], 2.4 nM.
Taken in the same sequence, the figures for `CCN(CCc1ccn(-c2cccc(C)n2)n1)C(=O)c1ccccc1-n1nccn1` [Example 23, N-ethyl-N-{2-[1-(6-methylpyridin-2-yl)-1H-pyrazol-3-yl]ethyl}-2-(2H-1,2,3-triazol-2-yl) benzamide] were 3 nM and 10.3 nM.
For `CN(CCc1noc(-c2ccc(F)c(F)c2)n1)C(=O)c1ccccc1-n1nccn1` [Example 32, N-{2-[5-(3,4-difluorophenyl)-1,2,4-oxadiazol-3-yl]ethyl}-N-methyl-2-(2H-1,2,3-triazol-2-yl) benzamide], the half-inhibitory concentration (IC50) in assay [1] is 14.8 nM; in assay [2], 133 nM.
Take `CCN(CCc1noc(-c2ccc(F)cn2)n1)C(=O)c1ccccc1-n1nccn1` [Example 44, N-ethyl-N-{2-[5-(5-fluoropyridin-2-yl)-1,2,4-oxadiazol-3-yl]ethyl}-2-(2H-1,2,3-triazol-2-yl) benzamide]: the values for the IC50 in assay [1] and in assay [2] were 791 nM and 613 nM, respectively.
In the same order, the values of `Cc1ccc(-n2nccn2)c(C(=O)N(C)CCc2ccn(-c3ccc(F)cn3)n2)c1` [Example 5, N-{2-[1-(5-Fluoropyridin-2-yl)-1H-pyrazol-3-yl]ethyl}-N,5-dimethyl-2-(2H-1,2,3-triazol-2-yl)benzamide] are 2.1 nM and 8 nM.
As for `CCN(CCc1ccn(-c2ccc(F)cn2)n1)C(=O)c1cc(C)ccc1-n1nccn1` [Example 8, N-Ethyl-N-{2-[1-(5-fluoropyridin-2-yl)-1H-pyrazol-3-yl]ethyl}-5-methyl-2-(2H-1,2,3-triazol-2-yl)benzamide], the IC50 in assay [1] came to 1.8 nM; in assay [2], 3.8 nM.
In the same order, the values of `CCN(CCc1ccn(-c2cccc(C)n2)n1)C(=O)c1cc(F)ccc1-c1ncccn1` [Example 28, N-ethyl-5-fluoro-N-{2-[1-(6-methylpyridin-2-yl)-1H-pyrazol-3-yl]ethyl}-2-(pyrimidin-2-yl) benzamide] are 8.1 nM and 81.1 nM.
In the same order, the values of `CN(CCc1ccn(-c2ccc(F)cn2)n1)C(=O)c1cc(Cl)ccc1-n1nccn1` [Example 16, 5-Chloro-N-{2-[1-(5-fluoropyridin-2-yl)-1H-pyrazol-3-yl]ethyl}-N-methyl-2-(2H-1,2,3-triazol-2-yl)benzamide] are 3.3 nM and 30.5 nM.
Taken in the same sequence, the figures for `CCN(CCc1ccn(-c2ccc(F)cn2)n1)C(=O)c1ccc(F)cc1-n1nccn1` [Example 17, N-Ethyl-4-fluoro-N-{2-[1-(5-fluoropyridin-2-yl)-1H-pyrazol-3-yl]ethyl}-2-(2H-1,2,3-triazol-2-yl)benzamide] were 0.4 nM and 2.8 nM.
For `CCN(CCc1cc(-c2ccc(F)cn2)no1)C(=O)c1cc(C)ccc1-n1nccn1` [Example 11, N-Ethyl-N-{2-[3-(5-fluoropyridin-2-yl)-1,2-oxazol-5-yl]ethyl}-5-methyl-2-(2H-1,2,3-triazol-2-yl)benzamide], the results for the IC50 in assay [1] and in assay [2] were 17 nM and 26.4 nM, respectively.
In the same order, the values of `Cc1ccc(-n2nccn2)c(C(=O)N(C)CCc2noc(-c3ccc(F)cc3)n2)c1` [Example 35, N-{2-[5-(4-fluorophenyl)-1,2,4-oxadiazol-3-yl]ethyl}-N,5-dimethyl-2-(2H-1,2,3-triazol-2-yl) benzamide] are 2.4 nM and 13.9 nM.
In the same order, the values of `CCN(CCc1noc(-c2ccc(F)cn2)n1)C(=O)c1cc(C)ccc1-n1nccn1` [Example 12, N-Ethyl-N-{2-[5-(5-fluoropyridin-2-yl)-1,2,4-oxadiazol-3-yl]ethyl}-5-methyl-2-(2H-1,2,3-triazol-2-yl)benzamide] are 1.9 nM and 11.6 nM.
In the same order, the values of `CCN(CCc1ccn(-c2ccc(F)c(F)c2)n1)C(=O)c1cc(F)ccc1-c1ncccn1` [Example 29, N-{2-[1-(3,4-difluorophenyl)-1H-pyrazol-3-yl]ethyl}-N-ethyl-5-fluoro-2-(pyrimidin-2-yl) benzamide] are 1.3 nM and 11.2 nM.
For `CCN(CCc1noc(-c2ccc(F)cc2)n1)C(=O)c1cc(C)ccc1-n1nccn1` [Example 38, N-Ethyl-N-{2-[5-(4-fluorophenyl)-1,2,4-oxadiazol-3-yl]ethyl}-5-methyl-2-(2H-1,2,3-triazol-2-yl)benzamide], the IC50 in assay [1] amounted to 1.2 nM; in assay [2], 6.1 nM.

Broadly, the IC50 is the concentration that gives 50% inhibition.
